Results from ChEMBL document CHEMBL5053501, “1,4,9-Triazaspiro[5.5]undecan-2-one Derivatives as Potent and Selective METTL3 Inhibitors” (J Med Chem, 2021).
In brackets after ≈: the same amount, converted by molar mass. Each block holds one molecule with its values, some of them ahead of it. Activity calls are given as the source filed them. The rule behind the calls is not given here.

Legend:
[1] = system: MOLM-13; experiment: Reduction in m6A levels in mRNA fraction in human MOLM-13 cells at 10 uM measured after 6 days by UPLC-MS/MS analysis; type: functional, cell-based; conditions: time 6.0 day
[2] = system: MOLM-13; experiment: Reduction in m6Am levels in total RNA fraction in human MOLM-13 cells at 10 uM measured after 6 days by UPLC-MS/MS analysis; type: functional, cell-based; conditions: time 6.0 day
[3] = system: MOLM-13; experiment: Reduction in m1A levels in mRNA fraction in human MOLM-13 cells at 10 uM measured after 6 days by UPLC-MS/MS analysis; type: functional, cell-based; conditions: time 6.0 day
[4] = system: MOLM-13; experiment: Effect on METTL3 expression in human MOLM-13 cells at 10 uM incubated for 16 hrs by Western blotting analysis; type: functional, cell-based
[5] = system: MOLM-13; experiment: Reduction in m6A levels in total RNA fraction in human MOLM-13 cells at 10 uM measured after 6 days by UPLC-MS/MS analysis; type: functional, cell-based; conditions: time 6.0 day
[6] = target: T1, METTL3/METTL14 (Homo sapiens) (UniProt Q86U44+Q9HCE5); conditions: dose 100.0 µM
[7] = species: Homo sapiens; experiment: Binding affinity to human METTL16 assessed as change in melting temperature at 100 uM by thermal shift assay
[8] = system: PC-3; experiment: Effect on METTL3 expression in human PC-3 cells at 10 uM incubated for 16 hrs by Western blotting analysis; type: functional, cell-based
[9] = system: PC-3; experiment: Growth inhibition of human PC-3 cells assessed as cell viability measured after 3 days; type: functional; conditions: PC-3, 72 h, time 3 day
[10] = Reduction in m6A/A ratio in poly-adenylated RNA fraction of human MOLM-13 cells measured after 16 hrs by UPLC-MS/MS analysis; type: functional, cell-based
[11] = system: MOLM-13; experiment: Reduction in m7G levels in mRNA fraction in human MOLM-13 cells at 10 uM measured after 6 days by UPLC-MS/MS analysis; type: functional, cell-based; conditions: time 6.0 day
[12] = system: MOLM-13; experiment: Growth inhibition of human MOLM-13 cells assessed as cell viability measured after 3 days; type: functional; conditions: MOLM-13, 72 h, time 3 day
[13] = species: Homo sapiens; experiment: Binding affinity to human METTL1 assessed as change in melting temperature at 100 uM by thermal shift assay
[14] = Metabolic stability in rat liver microsomes assessed as half life by LC-MS analysis; type: ADME, Microsome
[15] = Kinetic solubility of the compound in PBS at pH 7.4 at 100 uM incubated for 1 hr by LCMS/MS analysis; type: physicochemical; conditions: read-out: Kinetic_solubility
[16] = target: N6-adenosine-methyltransferase catalytic subunit (Homo sapiens, UniProt Q86U44); experiment: Inhibition of recombinant […] (unknown origin) expressed in baculovirus infected Sf9 cells assessed as decrease in N6-methyladenosine level in oligonucleotide substrate by TR-FRET assay
[17] = species: Homo sapiens; experiment: Binding affinity to human METTL1 assessed as change in melting temperature at 1000 uM by thermal shift assay
[18] = species: Homo sapiens; experiment: Binding affinity to human METTL16 assessed as change in melting temperature at 1000 uM by thermal shift assay
[19] = target: T1, METTL3/METTL14 (Homo sapiens); conditions: dose 1000.0 µM

N6-adenosine-methyltransferase catalytic subunit, sequence (Q86U44 whole entry): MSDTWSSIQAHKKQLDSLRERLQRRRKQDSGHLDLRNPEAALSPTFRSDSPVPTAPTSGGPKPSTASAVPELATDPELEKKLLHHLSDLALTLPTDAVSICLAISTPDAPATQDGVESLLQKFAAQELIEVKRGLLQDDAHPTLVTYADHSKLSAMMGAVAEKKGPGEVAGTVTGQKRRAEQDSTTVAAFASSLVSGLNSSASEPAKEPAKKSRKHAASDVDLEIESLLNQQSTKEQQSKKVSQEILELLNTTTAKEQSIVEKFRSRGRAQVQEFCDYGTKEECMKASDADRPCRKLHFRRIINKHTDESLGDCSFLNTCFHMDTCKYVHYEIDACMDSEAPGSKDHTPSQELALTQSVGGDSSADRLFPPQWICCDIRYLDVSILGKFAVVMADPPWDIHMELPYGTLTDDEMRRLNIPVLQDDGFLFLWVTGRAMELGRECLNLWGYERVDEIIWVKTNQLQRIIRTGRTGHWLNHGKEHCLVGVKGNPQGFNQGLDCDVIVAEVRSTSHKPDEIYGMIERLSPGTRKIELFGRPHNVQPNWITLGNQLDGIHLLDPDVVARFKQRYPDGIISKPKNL

ΔTm [6]: 4.7 °C
deltaTm [7]: inactive
GI50 [9]: 70 µM
EC50 [10]: 0.7 µM
GI50 [12]: 12 µM
deltaTm [13]: inactive
SMILES: CNc1cc(N2CCC3(CC2)CN(c2cc(F)c(CN4CCC(C)(C)CC4)cc2F)CC(=O)N3)ncn1
Activity [1]: Active
Activity [2]: Active
Activity [3]: inactive
Activity [4]: Active
Activity [5]: Active
Activity [8]: Active
Activity [11]: inactive

half-life [14]: 70 min
solubility kinetic at 1 h, 100 µM [15]: 86 µM (≈ 38.7 µg/mL)
SMILES: CNc1cc(N2CC3(CN(c4ccc(CN5CCC(C)(C)CC5)cc4)CC(=O)N3)C2)ncn1

IC50 [16]: 0.59 µM
ΔTm [17]: 6.3 °C
ΔTm [18]: 0.8 °C
ΔTm [19]: 3.7 °C
SMILES: Nc1ncnc2c1ncn2[C@@H]1O[C@H](CSCC[C@H](N)C(=O)O)[C@@H](O)[C@H]1O [S-ADENOSYLHOMOCYSTEINE]

IC50 [16]: 7 µM
SMILES: CNc1cc(N2CCCC(O)(CNC(=O)c3ccc(CN4CCC(C)(C)CC4)cc3)C2)ncn1 (configuration not stated)

SMILES: CC1(C)CCN(Cc2ccc(N3CC(=O)NC4(CCN(c5nc(Cl)nc6[nH]ccc56)CC4)C3)cc2)CC1
half-life [14]: 32 min
solubility kinetic at 1 h, 100 µM [15]: 45 µM (≈ 23.5 µg/mL)
